Experimental data as given in patent US12599560B2, “Lipids and lipid nanoparticle formulations” (Longuide Biopharma Corporation, priority 2023, dated 2026).

Tests used:
mice = assay: In vivo delivery of FLuc-mRNA lipid nanoparticle preparations in mice (IVIS imaging); parameters: In vivo IVIS / In vivo IVIS (liver) / In vivo IVIS (spleen): unit not given here; conditions: Table 4
Method: 7. In Vivo Delivery of the Nucleic Acid Lipid Nanoparticle Preparations in Mice After the preparation was completed, the preparation was injected intramuscularly (mice rectus femoris muscle of the thigh) or intravenously (mice tail vein), with approximately 75 μL per mouse, for a total of 3 mice. After a certain time of injection, in vivo imaging (PerkinElmer, IVIS Lumina III) was performed. 10-15 minutes before imaging, 200 μL of 15 mg/mL D-Luciferin working solution was injected intraperitoneally, and the imaging analysis was performed using an in vivo imager.

[1] = Particle size and PDI by dynamic light scattering; type: physicochemical; conditions: Table 4
Method: The 7.5 μL nucleic acid lipid nanoparticle solution (containing approximately 0.04 mg/mL mRNA) was taken and added with 200 μL ultrapure water, mixed by gentle blowing using a pipette tip, and the particle size of the nanopreparation was detected by dynamic lightscattering (DLS) using a Malvern Dynamic Light Scattering Instrument (Malvern Instruments Ltd., ZEN3700, UK). 27.5 μL nucleic acid lipid nanoparticle solution (containing about 0.04 mg/mL mRNA) was taken and added with 200 μL ultrapure water. A pipette tip was used to gently blow the sample and mix well. The particle size of the nanopreparation was detected by Malvern Dynamic Light Scattering Instrument (Malvern Instruments Ltd., ZEN3700, UK). After the detection, the sample was recovered to an EP tube, and 600 μL of ultrapure water was added, gently blown with a pipette tip, and the potential of the nanopreparation was measured by a Malvern particle size meter.

| Structure (SMILES) | PDI [1] | Particle size (nm) [1] [nm] | Particle size (nm) ([1]; molar ratio 1.00:6.00:44.50:48.50, N/P 40, IV formulation) | Particle size (nm) ([1]; molar ratio 1.50:6.00:57.50:35.00, N/P 48, IM formulation) | Particle size (nm) ([1]; molar ratio 1.00:16.00:48.00:35.00, N/P 30, IV formulation) | Particle size (nm) ([1]; molar ratio 1.40:11.15:38.95:48.50, N/P 40, IM formulation) | In vivo IVIS (mice; IM) | In vivo IVIS (mice; IV) |
| --- | --- | --- | --- | --- | --- | --- | --- | --- |
| CCCCCCCCCCOC(=O)C(O)CN(CCN1CCN(CCN(CC(O)C(=O)OCCCCCCCCCC)CC(O)C(=O)OCCCCCCCCCC)CC1)CCN(CC(O)C(=O)OCCCCCCCCCC)CC(O)C(=O)OCCCCCCCCCC (stereo not shown) [Compound L0210] | 0.15 ± 0.01 |  |  |  | 101.83 ± 0.21 | 94.89 ± 0.78 | 2.48 × 10^7 | 6.93 × 10^9 |
| CCCCCCCCCCCCOC(=O)C(O)CN[C@H]1CC[C@@H](N(CC(O)C(=O)OCCCCCCCCCCCC)CC(O)C(=O)OCCCCCCCCCCCC)CC1 (stereo partly shown) [Compound L0212] | 0.18 ± 0.01 | 95.87 ± 0.24 |  |  |  |  | 1.40 × 10^7 | 1.38 × 10^8 |
| CCCCCCCCCCCCNC(=O)C(O)CN(CC(O)C(=O)NCCCCCCCCCCCC)[C@H]1CC[C@@H](N(CC(O)C(=O)NCCCCCCCCCCCC)CC(O)C(=O)NCCCCCCCCCCCC)CC1 (stereo partly shown) [Compound L0213] | 0.18 ± 0.01 | 174.43 ± 1.85 |  |  |  |  | 2.36 × 10^5 | 3.64 × 10^5 |
| CCCCCCCCCCCCNC(=O)C(O)CN(CC(O)C(=O)NCCCCCCCCCCCC)[C@H]1CC[C@H](N(CC(O)C(=O)NCCCCCCCCCCCC)CC(O)C(=O)NCCCCCCCCCCCC)CC1 (stereo partly shown) [Compound L0214] | 0.21 ± 0.01 | 177.07 ± 1.00 |  |  |  |  | 2.46 × 10^5 | 3.60 × 10^5 |
| CCCCCCCCCCNC(=O)C(O)CN(Cc1ccc(CN(CC(O)C(=O)NCCCCCCCCCC)CC(O)C(=O)NCCCCCCCCCC)cc1)CC(O)C(=O)NCCCCCCCCCC (stereo not shown) [Compound L0215] | 0.11 ± 0.01 | 119.27 ± 1.75 |  |  |  |  | 2.45 × 10^5 | 4.06 × 10^5 |
| CCCCCCCCCCNC(=O)C(O)CN(CC(O)C(=O)NCCCCCCCCCC)[C@H]1CC[C@@H](N(CC(O)C(=O)NCCCCCCCCCC)CC(O)C(=O)NCCCCCCCCCC)CC1 (stereo partly shown) [Compound L0216] | 0.08 ± 0.02 | 117.97 ± 1.91 |  |  |  |  | 3.58 × 10^5 | 2.18 × 10^5 |
| CCCCCCCCCCNC(=O)C(O)CN[C@H]1CC[C@@H](N(CC(O)C(=O)NCCCCCCCCCC)CC(O)C(=O)NCCCCCCCCCC)CC1 (stereo partly shown) [Compound L0217] | 0.09 ± 0.02 | 87.05 ± 0.47 |  |  |  |  | 2.97 × 10^6 | 2.87 × 10^7 |
| CCCCCCCCCCNC(=O)C(O)CN(CC(O)C(=O)NCCCCCCCCCC)[C@H]1CC[C@H](N(CC(O)C(=O)NCCCCCCCCCC)CC(O)C(=O)NCCCCCCCCCC)CC1 (stereo partly shown) [Compound L0218] | 0.07 ± 0.02 | 109.43 ± 1.16 |  |  |  |  | 8.49 × 10^5 | 5.55 × 10^5 |

More lines, main results first:

| PDI [1] | Particle size (nm) [1] [nm] | Particle size (nm) ([1]; molar ratio 1.00:6.00:44.50:48.50, N/P 40, IV formulation) | Particle size (nm) ([1]; molar ratio 1.50:6.00:57.50:35.00, N/P 48, IM formulation) | Particle size (nm) ([1]; molar ratio 1.00:16.00:48.00:35.00, N/P 30, IV formulation) | Particle size (nm) ([1]; molar ratio 1.40:11.15:38.95:48.50, N/P 40, IM formulation) | Structure (SMILES) | In vivo IVIS (mice; IM) | In vivo IVIS (mice; IV) |
| --- | --- | --- | --- | --- | --- | --- | --- | --- |
| 0.19 ± 0.00 | 172.13 ± 1.53 |  |  |  |  | CCCCCCCCCCCCOC(=O)C(O)CN(Cc1ccc(CN(CC(O)C(=O)OCCCCCCCCCCCC)CC(O)C(=O)OCCCCCCCCCCCC)cc1)CC(O)C(=O)OCCCCCCCCCCCC (stereo not shown) [Compound L0207] | 1.75 × 10^5 | 2.41 × 10^5 |
| 0.14 ± 0.03 | 176.67 ± 1.97 |  |  |  |  | CCCCCCCCCCCCNC(=O)C(O)CN(Cc1ccc(CN(CC(O)C(=O)NCCCCCCCCCCCC)CC(O)C(=O)NCCCCCCCCCCCC)cc1)CC(O)C(=O)NCCCCCCCCCCCC (stereo not shown) [Compound L0208] | 1.94 × 10^6 | 2.27 × 10^5 |
|  |  | 99.95 ± 0.74 | 84.17 ± 0.31 |  |  | CCCCCCCCCCOC(=O)C(O)CN(CCCN1CCN(CCCN(CC(O)C(=O)OCCCCCCCCCC)CC(O)C(=O)OCCCCCCCCCC)CC1)CC(O)C(=O)OCCCCCCCCCC (stereo not shown) [Compound L0209] | 7.33 × 10^8 | 1.52 × 10^10 |
| 0.22 ± 0.00 | 134.47 ± 2.72 |  |  |  |  | CCCCCCCCCCOC(=O)C(O)CN(Cc1ccc(CN(CC(O)C(=O)OCCCCCCCCCC)CC(O)C(=O)OCCCCCCCCCC)cc1)CC(O)C(=O)OCCCCCCCCCC (stereo not shown) [Compound L0211] | 1.37 × 10^5 | 1.36 × 10^5 |
